Read-outs that look alike come from different tables or passages of the source.
Experiments:
T-cell proliferation = T-cell proliferation ([3H]thymidine uptake, C57BL/6 responders with mitomycin C treated BALB/C feeder cells); type: cell-based; conditions: murine T-cells, read-out: Concentration that provides 50% inhibition of T-cell proliferation, IC50
Description: T-cell assay is commonly employed as a primary platform for testing of activities that modulate immune and inflammatory activities in many diseases. Assays of antigen non-specific T-cell proliferation and antigen-specific proliferation are often used in the tests.
(§1) To determine the effect of the inventive compounds on non-specific and specific antigen induced T-cell proliferation, compounds were tested at a range of concentrations as outlined by the following protocol: Murine lymph nodes were removed aseptically and cell suspensions were prepared in RPMI-1640. Single lymphocytes were isolated over Lymphocyte-M by centrifugation at 22° C. and 1800 g for 15 min, and then washed three times (500 g for 5 min at 22° C.). Adherent cells were depleted by cytoadherence to fibronectin-coated plastic culture dish (twice at 37° C. for 45 min). T-cells isolated by incubating cell suspensions in a nylon wool column for 2 h at 37° C. and use for subsequent experiments were greater than 95% viable, as determined by trypan blue exclusion. Feeder cells were prepared by treating BALB/C spleen cells with mitomycin C (50 μg/ml, for 20 min at 37° C.) followed by five times washing using a large volume of Hank's solution. C57BL/6 Responders (2×10^5) was incubated in duplicate with the mitomycin C treated BALB/C feeder cells (2×10^5) in 96-well, round-bottomed, microtitre plates (Costar Laboratories, Worcester, Mass.) with complete medium (RPMI 1640 with 25 mM Hepes and L-glutamine supplemented with […] 2-mercapto-ethanol, 10% fetal cow serum (FCS), 10,000 unit of penicillin, and 10 mg of streptomycin per 100 ml of medium) at 37° C., 5% CO2. After 96 h, the culture wells received [^3H]thymidine ([^3H]TdR; 1 μCi/well) and proliferation was assessed at 16 h by harvesting cells onto glass fiber filter paper and counting in a β-counter.

IL-2 production = IL-2 production from Con A activated T-cells (ELISA); type: cell-based, murine; conditions: read-out: Inhibitory activity against IL-2 production, IC50
Description: as §1
(§2) To determine the effect of inventive compounds on IL-2, IL-4 and IFN-γ production from activated T-cells, the following assays were performed using the protocol outlined above for T-cells. The T-cell was activated by concanavalin A (Con A) and incubated, cytokines in the supernatants were assayed by commercial immune-linked immunosorbent assay (ELISA) kits.

IFN-γ = IFN-γ production from Con A activated T-cells (ELISA); type: cell-based, murine; conditions: read-out: Concentration for 50% of inhibition of IFN-γ, IC50
Description: as §1, §2

[1] = system: induced edema in Balb/c mouse; test: TPA induced mouse ear edema model; type: in vivo; conditions: single topical administration
Description: Briefly, Balb/c mouse ear edema was induced by phorbol-12-myristate-13-acetate (TPA) by adding 20 ul of 0.01% (w/v) to the right ear of each mouse. Each test compound dissolved in the same vehicle (ethanol) as TPA was applied separately to the right ear of each moue. The mouse ear edema of each test compound was compared with that of the TPA and expressed as % of inhibition.

TNF-α production = TNF-α production by macrophage cells (ELISA); type: cell-based; conditions: murine macrophage cells, 24 h; for Effect on TNF-α production, % of control: 10 μM; for activity at 10 µM: Mus musculus, read-out: Effect on TNF-α production, % of control
Description: (§3) Macrophages are very important components of the host defense system, but they are also involved in the development of tissue injury during inflammation in some human disease. Efficient antagonists can block subsequent symptoms (skin redness, edema, pain and dysfunction) of inflammation. CD86 expression, nitric oxide and TNF-α production are experimental indicators of macrophage function in vivo. CD86 expression by antigen presenting cells, including dendritic cells, macrophages and activated B cells, is necessary for interaction with T-cell CD28, which is necessary for T-cells to be fully activated. Nitric oxide is a potent microbiological macrophage product. TNF-α is a pro-inflammatory cytokine important in recruitment and stimulation of inflammatory cells. The effect of inventive compounds on the TNF-α production by macrophage cells was tested using the following protocol: Murine macrophage cells were lifted from adherent culture and resuspended in 10% FCS in DMEM. Cells (5×10^4/well) were aliquoted into flat bottom, tissue culture-treated microtitre plates and lipolysaccharide, N-acetylcysteine, test compound or vehicle controls were added. The cells were incubated at 37° C., 5% CO2 for 24 h and the culture supernatant removed for TNF-α ELISA, and CD86 expression was determined by FACS analysis on flow cytometer.

[2] = system: CD86 expression in murine macrophages; test: CD86 expression in murine macrophages (FACS); type: cell-based; conditions: 10 μM, 24 h
Description: as §3

[3] = system: histamine release by mast cells; test: Histamine release by mast cells derived from mouse bone marrow (hexosamindase activity); type: cell-based; conditions: Mast cell, read-out: Effect on histamine release by mast cells, IC50
Description: Histamine is an important mediator and is involved in a wide range of biological activities, including inflammation and allergy. The activity of representative compounds, against histamine release was tested using a standard mast cell assay (Arquardt, C. et al. 1986. Am Rev Respir Dis 133:1105-1109). The mast cells were derived from mouse bone marrow. The histamine release was measured by the hexosamindase activity.

[4] = system: crystal induced neutrophil activation; test: Crystal (calcium pyrophosphate dihydrate) induced neutrophil activation, chemoluminescence; type: cell-based, human; conditions: 25 μM
Description: (§4) Neutrophils predominate over other cell types in many variants of acute and chronic inflammatory condition. Effect of the inventive compounds was tested on human neutrophil activation by chemoattractant [N-formyl-methionyl-luecyl-phenylalanine (FMPL)] and crystal (calcium pyrophosphate dihydrate) using an established protocol (Tudan, C. 1999. Biochem. Pharmacol 58:1869-1880).
(§5) Neutrophils were prepared from freshly collected human citrated whole blood. Briefly, 400 ml of blood were mixed with 80 ml of 4% dextran in Hanks buffered saline solution (HBSS) pH 7.4 and allowed to settle for 1 hour. Plasma was collected continuously and 5 ml applied to 5 ml of Ficoll Paque (Pharmacia) in 15 ml polypropylene tubes. Following centrifugation at 500 g for 30 minutes, the neutrophil pellets were washed free of erythrocytes by 20 seconds of hypotonic shock. Neutrophils were resuspended in HBSS, kept on ice and used for experiments within 3 h. Neutrophil viability and purity was always greater than 90%. Solutions of test compounds were added to neutrophils at 5,000,000 cells per ml under mild vortexing. Cells were incubated for 20 minutes at 33° C. then for 10 minutes at 37° C. before addition to crystals or chemoattractants for neutrophil activation. Chemoluminescence was monitored using an luminometer at 37° C.

[5] = system: FMLP induced neutrophil activation; test: FMLP induced neutrophil activation, chemoluminescence; type: cell-based; conditions: Homo sapiens, read-out: FMLP induced neutrophil activation, Chemoluminescence (mV), % of control
Description: as §4, §5

SMILES	IC50 (T-cell proliferation)	Effect on CD86 expression in murine macrophages, % of control [2]	IC50 (T-cell proliferation; Mus musculus, T-cell)	IC50 (IL-2 production; Mus musculus, T-cell)	IC50 (IFN-γ; Mus musculus, T-cell)	also measured
CC(C)c1c(O)cc(C(C#N)=Cc2ccccc2)cc1O [2-(3,5-Dihydroxy-4-i-propylphenyl)-3-phenylpropenylnitrile]	3.5 µM					IC50 (IL-2 production): 0.13 µM; IC50 (IFN-γ): 0.86 µM; % inhibition of edema [1]: 85.2%; Effect on TNF-α production, % of control (TNF-α production): 60%
CC(C)c1c(O)cc(C=Cc2ccccn2)cc1O.Cl [2-[2-(3.5-Dihydroxy-4-i-propylphenyl)ethenyl]pyridine hydrochloride]	2.09 µM	88%				Effect on TNF-α production, % of control (TNF-α production): 75%
CC(C)c1c(O)cc(C=Cc2cccs2)cc1O [2-i-Propyl-5-(2-thiophene-2-ylethenyl)-1,3-benzenediol]		2%	5.16 µM	0.028 µM	0.08 µM	IC50 [3]: 18.9 µM; activity at 10 µM (TNF-α production): 50%
CC(C)c1c(O)cc(C=C(C#N)c2ccccc2)cc1O [3-(3,5-Dihydroxy-4-i-propylphenyl)-2-phenylpropenylnitrile]	1.81 µM	16%				IC50 (IFN-γ): 0.71 µM
CC(=Cc1ccccc1)c1cc(O)c(C(C)C)c(O)c1 [5-(1-Methyl-2-phenylethenyl)-2-i-propyl-1,3-benzenediol]		0%	1.49 µM		1.62 µM	
CC(C)c1c(O)cc(C=C(c2ccccc2)c2ccccc2)cc1O [5-(2,2-Diphenylethenyl)-2-i-propyl-1,3-benzenediol]		10%			1.71 µM	
CC(=Cc1cc(O)cc(O)c1)c1ccccc1 [5-(2-Methyl-2-phenylethenyl)-1,3-benzenediol]		90%	4.65 µM	1.79 µM		activity at 10 µM (TNF-α production): 42%
CC(=Cc1cc(O)c(C(C)C)c(O)c1)c1ccccc1 [5-(2-Methyl-2-phenylethenyl)-2-i-propyl-1,3-benzenediol]		51%	1.15 µM	0.4 µM		Crystal induced neutrophil activation, chemoluminescence (mV) as % of the control ([4]; time 1 minute): 23%; Crystal induced neutrophil activation, chemoluminescence (mV) as % of the control ([4]; time 2 minutes): 10%; Crystal induced neutrophil activation, chemoluminescence (mV) as % of the control ([4]; time 3 minutes): 7%; Crystal induced neutrophil activation, chemoluminescence (mV) as % of the control ([4]; time 4 minutes): 6%; Crystal induced neutrophil activation, chemoluminescence (mV) as % of the control ([4]; time 5 minutes): 6%; Crystal induced neutrophil activation, chemoluminescence (mV) as % of the control ([4]; time 7 minutes): 16%; Crystal induced neutrophil activation, chemoluminescence (mV) as % of the control ([4]; time 10 minutes): 29%; activity at 25 µM [5]: 30%
C=C1/C(=C\C=C2/CCC[C@]3(C)[C@@H]([C@H](C)CCCC(C)(C)O)CC[C@@H]23)C[C@@H](O)C[C@@H]1O [calcitriol, reference compound]						% inhibition of edema ([1]; 0.01% calcitriol): 31.2%

From patent publication US8487009B2, “1,2-diphenylethene derivatives for treatment of immune diseases” (Glaxo Group Limited, priority 2001, dated 2013)
